Where two headings read alike, the source gives them in different places.
Experiments:
[1] = tested on: human growth hormone (532) promoter; experiment: High-throughput luciferase reporter assay, human Growth Hormone promoter (Screen III); assay type: cell-based; details: 532 cells, 6 hours; for FOLD INHIBITION RELATIVE TO SOLVENT CONTROL, hGH: Screen III inhibitors; for FOLD INDUCTION RELATIVE TO SOLVENT CONTROL, hGH: Screen III activators
[2] = tested on: MMTV (M10) promoter; experiment: High-throughput luciferase reporter assay, MMTV promoter (Screen III); assay type: cell-based, mouse; details: M10 cells, 6 hours; for FOLD INHIBITION RELATIVE TO SOLVENT CONTROL, MMTV: Screen III inhibitors; for FOLD INDUCTION RELATIVE TO SOLVENT CONTROL, MMTV: Screen III activators
Protocol: pMluci and pSV2Neo, an antibiotic resistance plasmid (112), were co-transfected into NIH/3T3 mouse fibroblast cells using the calcium phosphate precipitation method (103) with a commercially available kit (Pharmacia, Piscataway N.J.). Two days later, cells were transferred to media containing 0.4 mg/ml G418 and were grown for an additional 10-14 days. G418-resistant clones were isolated by standard methods. Once sufficient cell numbers were obtained, clones were analyzed based on several criteria: constitutive luciferase production, induction of luciferase expression by dexamethasone (1 μm, Sigma, St. Louis, Mo.), satisfactory attachment to microtiter plates used in the high-throughput screen and acceptable standard deviation in multiple luciferase expression assays (see below for assay protocol). This analysis was carried out using the luciferase assay conditions described above. Of the clones which satisfied the above criteria for the high throuphput screen, one clone, M10, was selected for use.

[3] = tested on: human G-CSF (G21) promoter; experiment: High-throughput luciferase reporter assay, G-CSF promoter (Screen III); details: G21 cells, 6 hours; for FOLD INHIBITION RELATIVE TO SOLVENT CONTROL, GCSF: Screen III inhibitors; for FOLD INDUCTION RELATIVE TO SOLVENT CONTROL, GCSF: Screen III activators
[4] = tested on: human G-CSF (G21) promoter; details: Screen III inhibitors; G21 cells; 6 hours

Compound	FOLD INHIBITION RELATIVE TO SOLVENT CONTROL, hGH [1] [fold]	FOLD INHIBITION RELATIVE TO SOLVENT CONTROL, MMTV [2] [fold]	FOLD INHIBITION RELATIVE TO SOLVENT CONTROL, GCSF [3] [fold]	FOLD INDUCTION RELATIVE TO SOLVENT CONTROL, hGH [1] [fold]	FOLD INDUCTION RELATIVE TO SOLVENT CONTROL, MMTV [2] [fold]	FOLD INDUCTION RELATIVE TO SOLVENT CONTROL, GCSF [3] [fold]	FOLD INHIBITION RELATIVE TO SOLVENT CONTROL, GCSF [4] [fold]
Cc1cc(C2(c3cc(C)c(O)c(CN(CC(=O)O)CC(=O)O)c3)OC(=O)c3ccccc32)cc(CN(CC(=O)O)CC(=O)O)c1O [compound 1773]	10.00	0.67	0.62				
N=c1cc2oc3cc(N)ccc3nc-2c2ccccc12 [compound 1776]				0.15	1.36	3.50	
CN(C)C(=S)SCC#N [compound 1793]				0.52	1.21	9.50	
O=C(O)C1CCC1 [compound 1804]				9.41	0.49	1.05	
O=c1[nH]c(=O)c2nc3ccccc3nc2[nH]1 [compound 1890]	5.26	0.58	0.80				
Nc1c2ccccc2nc2ccccc12 [compound 1904]				0.54	0.82	4.12	
Brc1cccc(-c2ccccc2)c1 [compound 1994]				0.34	0.63	3.29	
CC(C)(C)c1ccc(Br)cc1 [compound 2001]				0.74	1.12	3.11	
Cc1n[nH]c(C)c1Br [compound 2009]	0.57	0.64					3.70
Nc1c(Br)cc([N+](=O)[O-])cc1[N+](=O)[O-] [compound 2010]	0.63	3.57	0.80				
COc1c(F)cc(Br)cc1[N+](=O)[O-] [compound 2030]				0.67	0.87	5.53	
O=C(O)c1ccc(Br)o1 [compound 2035]	7.14	0.89	0.57				
Nc1nc2c(nc(Br)n2[C@@H]2O[C@H](CO)[C@@H](O)[C@H]2O)c(=O)[nH]1 [compound 2036]	4.34	0.81					0.58
CCCCCCCCCCCCCCCCBr [compound 2037]	4.00	0.50					0.51
COc1cc2oc(=O)cc(CBr)c2cc1OC [compound 2064]				1.10	2.53	0.82	
CC(CCl)CBr (stereo not drawn) [compound 2096]				0.61	0.89	3.27	
ClCc1ccc(Cl)cc1 [compound 2129]				0.75	0.95	3.23	
O=C1CCCCC1Cl (stereo not drawn) [compound 2148]				0.92	2.82	0.45	
O=C(N[C@H](CO)[C@H](O)c1ccc([N+](=O)[O-])cc1)C(Cl)Cl [compound 2191]				0.35	7.32	0.37	

From patent US6203976A, “Methods of preparing compositions comprising chemicals capable of transcriptional modulation” (OSI Pharmaceuticals, Inc., priority 1994, dated 2001)
